Experimental data: US9150589B2, “Polymorphous forms III and IV of N-benzoyl—staurosporine” (NOVARTIS AG, priority 2009, dated 2015)

Assay: Thermal decomposition on heating under nitrogen atmosphere
Assay type: physicochemical
Conditions: heating rate of 20K/min under nitrogen atmosphere
Experimental: The crystalline form III decomposes above 270° C., when heated with a heating rate of 20K/min under nitrogen atmosphere.
The crystalline form IV decomposes at about 270° C. when heated at 20K/min under nitrogen atmosphere.

decomposition temperature	SMILES
above 270 °C	CO[C@@H]1[C@H](N(C)C(=O)c2ccccc2)C[C@H]2O[C@]1(C)n1c3ccccc3c3c4c(c5c6ccccc6n2c5c31)C(=O)NC4 [crystalline form III, N-[(9S,10R,11R,13R)-2,3,10,11,12,13-hexahydro-10-methoxy-9-methyl-1-oxo-9,13-epoxy-1H,9H-diindolo[1,2,3-gh:3′,2′,1′-lm]pyrrolo[3,4-j][1,7]benzodiazonin-11-yl]-N-methylbenzamide]
about 270 °C	CO[C@@H]1[C@H](N(C)C(=O)c2ccccc2)C[C@H]2O[C@]1(C)n1c3ccccc3c3c4c(c5c6ccccc6n2c5c31)C(=O)NC4 [crystalline form IV, N-[(9S,10R,11R,13R)-2,3,10,11,12,13-hexahydro-10-methoxy-9-methyl-1-oxo-9,13-epoxy-1H,9H-diindolo[1,2,3-gh:3′,2′,1′-lm]pyrrolo[3,4-j][1,7]benzodiazonin-11-yl]-N-methylbenzamide]
